The values that follow come from article PMC11661381, “Covalent-fragment screening identifies selective inhibitors of multiple Staphylococcus aureus serine hydrolases important for growth and biofilm formation” (Research Square, 2024).

Data set [1] in a line: Cytotoxicity assay (CellTiter-Blue). The note with it: human; HEK293 cells, 48hr of incubation. The data set is classed as cell-based.
In data set [2] the test system is S. aureus biofilm formation. Nature of the data set: Crystal violet biofilm inhibition assay. The data set is classed as cell-based, Staphylococcus aureus. The note with it: fphH or fphE transposon mutant. On the procedure:
Overnight cultures of S. aureus (wild-type, transposon mutants and complemented) strains (Table S3) grown in TSB, were subcultured on fresh TSB and grown to OD600 of 0.5. Biofilms were cultured in 96 well plates by transferring 1 μL of the culture to 200 μL of TSB plus 1% glucose with or without the inhibitors and incubated for 16 hours at 37°C without agitation. The inhibitor concentrations ranged from 1, 5, 10, 50 and 100 μM final concentration. Equal volume of DMSO was added as control. The wells were washed to remove the planktonic cells and the plates air-dried before staining with 200μL of 0.1% w/v crystal violet for 10 minutes at room temperature. The wells were washed to remove excess dye and blotted to dry. Each well was filled with 200μL of DMSO for 10 minutes at room temperature to dissolve the dye. The absorbance was measured at 590 nm using Spark multimode microplate reader (TECAN). The data represents n = 3 independent experiments and are expressed as a percentage of the uninhibited wild-type bacteria. All the data are normalized such that 100% represent untreated WT S. aureus. P values were determined using ordinary one-way ANOVA multiple comparisons GraphPad Prism 10.0 software. *P < 0.05, **P < 0.01, ***P < 0.001 and ****P < 0.0001.

The target in another data set is T1, rFphE (Staphylococcus aureus, UniProt Q2FDS6).
T1 construct: otherwise full-length FphE (Uniprot ID Q2FDS6) and FphH (A0A0H2XJL0) proteins; His6 (3C-cleavable, pETNKI-his-3C-LIC vector) (N); made in house; E. coli is inferred from the pET28a-type vector, IPTG induction and LB/kanamycin
T1 sequence (Q2FDS6 1-276): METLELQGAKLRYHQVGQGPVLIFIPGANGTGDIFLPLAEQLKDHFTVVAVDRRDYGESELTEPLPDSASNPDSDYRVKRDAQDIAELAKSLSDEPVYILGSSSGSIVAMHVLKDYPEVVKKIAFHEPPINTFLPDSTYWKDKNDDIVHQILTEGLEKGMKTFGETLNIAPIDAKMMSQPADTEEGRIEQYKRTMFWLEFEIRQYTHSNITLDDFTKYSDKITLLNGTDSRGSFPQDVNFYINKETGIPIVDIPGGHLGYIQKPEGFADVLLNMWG
Kind of data set: FP-Cy5 active site labeling competition of recombinant protein, rFphE. The format is binding. How it is done:
For activity-based protein labeling experiments, 500 nM of rFphB, rFphE and rFphH in 1X PBS and 0.1% Triton–X were preincubated with different concentrations of inhibitors or DMSO for 2hr at room temperature, followed by adding 300 nM of fluorophosphonate (FP) alkyne and incubated for 30 min at room temperature. Next, 20 μL of the reaction volume were mixed with 2.16 μL of freshly prepared click mix (0.5 μL of 50 mM CuSO4 in H2O, 1.16 μL of 100 mM BTTAA in DMSO, and 0.5 μL of N3-Cy5 in DMSO) and 1.16 μL of 300 mM sodium ascorbate solution in H2O. Samples were incubated at 37°C for 30 min, boiled in SDS loading buffer and analyzed by SDS–PAGE. Cy5 fluorescence was imaged using the Cy5 channel on a Typhoon 9410 Imager (Amersham Biosciences).

Data set [3] has as its target T2, Fph enzymes in live S. aureus cells (USA300) (Staphylococcus aureus, UniProt Q2FDS6).
T2 construct: endogenous in cells; host or cells: live S. aureus USA300 (LAC) wild-type cells
Nature of the data set: Competition of FP-alkyne labeling in live S. aureus cells. The data set is classed as cell-based. The note with it: live cells, doses 5–100 μM, 120 min preincubation. How it is done: (§1) One colony of each of S. aureus wild-type and transposon mutants fphB::Tn, fphE::Tn and fphH::Tn picked from growth on a Tryptic soya agar plate were inoculated in 5 mL of Tryptic soya broth (TSB). The overnight bacterial cultures were spun down at 5,000 g for 10 min and pellet was collected. The pellets were washed twice in 1X PBS buffer and resuspended in the same buffer. Cells were first preincubated with the indicated concentrations of inhibitors for 2hr at 37°C. The cells were washed twice with 1X PBS buffer. The resuspended pellets were incubated with Fluorophosphonate-alkyne (FP-alkyne) for 30 min at 37°C. Cells were washed again twice with 1X PBS buffer and resuspended in with 1X PBS and 0.1% Triton–X and lysed by beat beating at 4°C. Next, lysed cells (20 μL) were mixed with 2.16 μL of freshly prepared click mix (0.5 μL of 50 mM CuSO4 in H2O, 1.16 μL of 100 mM BTTAA in DMSO, and 0.5 μL of N3-Cy5 in DMSO) and 1.16 μL of 300 mM sodium ascorbate solution in H2O and incubated at 37 °C for 30 min. Next step, 20 μL of 4X SDS loading buffer was added in each sample and boiled at 100 °C for 10 min. The processed samples were allowed to cool and analyzed by SDS-PAGE (12%) running at 120 V in an electrophoresis chamber. Cy5 fluorescence was imaged using the Cy5 channel on a Typhoon 9410 Imager (Amersham Biosciences).

Data set [4] relates to Fph enzymes in live S. aureus cells (USA300). The data set is described as above. The data set is classed as cell-based, Staphylococcus aureus. The conditions noted are these: 100 μM compound, live S. aureus cells. On the procedure:
as §1

The subject of a further data set is Escherichia coli. Kind of data set: Bacterial growth inhibition assay, E. coli. The data set is classed as cell-based.

In data set [1], `OB(O)c1csc2ccccc12` [Z27, Benzo[b]thiophen-3-ylboronic acid] yielded a 50% cytotoxic concentration (CC50) at 48 h above 200 µM. Further, the “effect on biofilm formation in transposon mutants (in words)” value in data set [2] was “further reduced by the inhibitor Z27 only at the highest concentrations used (50 and 100 μM)”. Also, the “concentration inhibiting FP-Cy5 labeling of rFphE” value at rFphE was above 50 µM. Besides, in data set [3], the “concentration completely inhibiting FphE labeling” value is at least 50 µM. For the same compound, the “competition of FP labeling in live cells (in words)” value in data set [4] is reported as “only blocked FP labeling of FphE in live cells”. The “growth defect (in words)” value in the data set with Escherichia coli is “no significant growth defect”.
